For experiment [1], the system named is dog platelets. Put plainly: ex vivo U46619 induced blood platelet aggregation after oral dosing, dogs. Type of experiment: in vivo. To be noted: for inhibition of U46619 induced aggregation: 12 hours after oral administration to dogs at 2.5 mg./kg. The text has this: (§1) (e) For example in the rabbit, arterial blood samples are taken by standard techniques into 3.8% w/v solution of trisodium citrate as anti-coagulant (1 part citrate: 9 parts blood) and then centrifuged first at 150 g, and then at 1000 g, to prepare platelet rich and platelet poor plasma fractions. These fractions are then used to calibrate an instrument for measuring light transmittance and thus the amount of platelet aggregation. The extent of platelet aggregation following addition of the TXA2 mimetic agent U46619 (final concentrations 0.2-2.2 μg./ml.) to the platelet rich plasma fraction is then determined, and the value of maximum aggregation in response to each concentration of U46619 is recorded. The test animals are then dosed orally with the test compound, and arterial blood samples are withdrawn at intervals after dosing. The platelet rich plasma fraction is prepared and U46619 added as above, and the extent of aggregation assessed by measuring the light transmittance of the sample. This value is compared with that obtained from the same animal before dosing, so that a measure of the extent of inhibition of U46619 induced blood platelet aggregation is obtained.
A similar procedure is used in rats and guinea pigs except that blood samples are not taken prior to dosing but a control value is obtained from a group of undosed animals. When the aggregation of dog platelets is being studied, it is necessary to use a predetermined, threshold concentration of the platelet aggregant adenosine diphosphate (about 0.4-1.2×10^-6 M) together with the TXA2 mimetic agent, U46619.

Experiment [2] concerns guinea-pig. Put plainly: bronchoconstriction test, Konzett-Rossler guinea-pig model, U46619 induced. The class given is in vivo. The following applies: for reduction (inhibition) of bronchoconstriction: 0.5 mg./kg. p.o., 2.5 hours after administration, guinea-pig, U46619 i.v. On the procedure:
(c) a bronchoconstriction test involving measuring the inhibition by a test compound of the bronchoconstriction induced in the Konzett-Rossler guinea-pig model (as modified by Collier and James, Brit. J. Pharmacol., 1967, 30, 283-307) by intravenous administration of the TXA2 mimetic agent, U46619 at 1-1.9 μg/kg.

In experiment [3] the test system is blood platelets. Nature of the experiment: ex vivo U46619 induced blood platelet aggregation after oral dosing, rats. The class given is in vivo, rat. The following applies: 6.5 hours after oral administration to rats at 10 mg./kg.
Source text: as §1
A similar procedure is used in rats and guinea pigs except that blood samples are not taken prior to dosing but a control value is obtained from a group of undosed animals. […]

In experiment [4] the test system is citrated, platelet rich, human plasma. Put plainly: blood platelet aggregation test, U46619 induced aggregation of platelet rich plasma. The class given is cell-based. To be noted: inhibition of aggregation of human platelet rich plasma induced by U46619 (50-250 ng/ml). Here is the method: (b) a blood platelet aggregation test based on that described by Born (Nature, 1962, 194, 927-929) and involving measuring the inhibition by a test compound of aggregation of citrated, platelet rich, human plasma induced by a sub-maximal concentration (in the range 50-250 ng/ml.) of U46619; and […]

Experiment [5] relates to Male rats (Alderley Park strain). Nature of the experiment: U46619 induced hypertensive effect in anaesthetised rats. The class given is in vivo, rat. Here is the method: (d) Male rats (Alderley Park strain) are anaesthetised with sodium pentobarbital and blood pressure is monitored at the carotid artery. The TXA2 mimetic agent known as U46619 is administered intravenously via the jugular vein and an ED50 (dose necessary to produce 50% of the maximum hypertensive effect) is established (n=3). The ED50 for U46619 is approximately 5 μg/kg. The test compound is then administered either intravenously via the jugular vein or orally via a cannula directly into the stomach and the animal challenged with an ED50 dose of U46619, five minutes after dosing with test compound and then successively every ten minutes until the hypertensive effect of U46619 is no longer blocked.

This is an account of results in US4803220A, “Pharmaceutical agents” (Imperial Chemical Industries PLC, priority 1984, dated 1989).

Broadly, the IC50 is the concentration that inhibits the measured activity by half. Low values mean inhibition by little substance, high ones a need for much substance. As a reminder, the ED50 is the dose that gives a 50% effect, or the effect in half of the subjects.

For `CC1(C)OC[C@@H](C/C=C\CCCC(=O)O)[C@@H](c2ccccc2O)O1` (relative stereo) [P, 5(Z)-7-(4-o-hydroxyphenyl-2,2-dimethyl-1,3-dioxan-cis-5-yl)heptenoic acid], the “inhibition of U46619 induced aggregation” value in experiment [1] is recorded as 15%. The “maximal inhibition of platelet aggregation” value in experiment [1] (some 3 hours after an oral dose of 2.5 mg./kg. in dogs) came to 93%. In addition, the “reduction (inhibition) of bronchoconstriction” value (from here on “reduction (inhibition)”) in experiment [2] is listed as 57%.

Take `O=C(O)CCC/C=C\C[C@@H]1CO[C@H](C(F)(F)F)O[C@@H]1c1ccccc1O` (relative stereo) [formula I, 5(Z)-7-([2,4,5-cis]-4-o-hydroxyphenyl-2-trifluoromethyl-1,3-dioxan-5-yl)heptenoic acid]: the “inhibition of U46619 induced aggregation” value amounted to 90% in experiment [3] and 95% in experiment [1]. Further, the “inhibition of U46619 induced platelet aggregation (in words)” value in experiment [1] (for up to 12 hours following an oral dose of 2.5 mg./kg. in dogs) is “essentially complete inhibition”. Moreover, the inhibition of bronchoconstriction in experiment [2] (0.5 mg./kg. oral, 3 hours after dosing (as restated)) is ~95%. In experiment [2], the “reduction (inhibition)” value is recorded as ~95%. Also, in experiment [4], the IC50 stood at 7.78 ± 1.6 ng/mL. Moreover, in experiment [5] (3 hours after oral administration at 5 mg./kg., rats), the “protection from blood pressure rise induced by U46619” value is “essentially complete protection”.

Regarding `CCCCC[C@H](O)/C=C/[C@@H]1[C@@H](C/C=C\CCCC(=O)O)[C@H]2CO[C@@H]1C2` [Example U46619], the ED50 in experiment [5] (Rattus norvegicus, iv, U46619 intravenously via the jugular vein, anaesthetised rats, n=3, read-out: ED50 (dose necessary to produce 50% of the maximum hypertensive effect)) was ~5 µg/kg.

In the case of `O=C(O)CCC/C=C\C[C@@H]1CO[C@H](C(F)(F)F)O[C@@H]1c1ccccc1` (relative stereo) [Q, 5(Z)-7-([2,4,5-cis]-4-phenyl-2-trifluoromethyl-1,3-dioxan-5-yl)heptenoic acid], in experiment [1] (some 4 hours after an oral dose of 75 mg./kg. in dogs), the “maximal inhibition of platelet aggregation” value is 23%. The “reduction (inhibition)” value in experiment [2] was “no significant inhibition”.
